Measured values reported in US7851637B2, “Compounds and methods for inhibiting the interaction of BCL proteins with binding partners” (Infinity Pharmaceuticals, Inc., priority 2004, dated 2010).
Where two headings read alike, the source gives them in different places.

Tests used:
[1] = biological target: Bcl-2 (Homo sapiens, UniProt P10415); assay: Bcl-2 binding affinity analysis (fluorescence polarization binding assay)
Outline: (§1)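 Sensitive, quantitative cell-free test: compound incubated with protein, then polarization of emitted fluorescence recorded to gauge affinity.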

[2] = biological target: Bcl-xL (Homo sapiens, UniProt Q07817); assay: Bcl-xL binding affinity analysis (fluorescence polarization binding assay); parameters: scale not given here
Outline: as §1

[3] = test system: RL Human Follicular Lymphoma Cell Line; assay: Alamar blue cytotoxicity assay in RL cells; format: cell-based; conditions: Homo sapiens, 72 h incubation, read-out: Bcl RL Alamar Blue IC50
Outline: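 Compounds tested at 29 uM to 0.013 uM final (0.3% DMSO) on 30,000 RL cells per well. After 72 h at 37 C, 5% CO2, viability read with Alamar blue.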

[4] = test system: Human Pancreatic Cancer Cell Line Panc1; assay: Cell death assay (propidium iodide/Hoechst) in Panc1 cells with or without camptothecin; format: cell-based; conditions: 72 hours, % cell death by propidium iodide/Hoechst
Outline: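 Panc1 cells, 10,000/well, exposed 72 h at 37 C to compound (29 uM to 0.13 uM, 0.3% DMSO) with or without 3 uM camptothecin. Propidium iodide and Hoechst staining imaged by fluorescence microscopy; % cell death = PI-stained/Hoechst-stained cells × 100.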

[5] = Homo sapiens, PANC-1, without camptothecin, read-out: Panc1 − Cpt IC50
[6] = with 3 uM Camptothecin, read-out: Panc1 + Cpt IC50

Chain of Bcl-xL (Q07817 whole entry): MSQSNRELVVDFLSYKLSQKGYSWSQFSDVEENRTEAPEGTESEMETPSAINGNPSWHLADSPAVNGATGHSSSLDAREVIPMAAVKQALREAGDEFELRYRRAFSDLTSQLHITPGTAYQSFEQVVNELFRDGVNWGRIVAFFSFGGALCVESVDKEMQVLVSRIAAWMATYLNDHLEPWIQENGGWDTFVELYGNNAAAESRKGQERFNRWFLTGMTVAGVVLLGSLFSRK
Chain of Bcl-2 (P10415 whole entry): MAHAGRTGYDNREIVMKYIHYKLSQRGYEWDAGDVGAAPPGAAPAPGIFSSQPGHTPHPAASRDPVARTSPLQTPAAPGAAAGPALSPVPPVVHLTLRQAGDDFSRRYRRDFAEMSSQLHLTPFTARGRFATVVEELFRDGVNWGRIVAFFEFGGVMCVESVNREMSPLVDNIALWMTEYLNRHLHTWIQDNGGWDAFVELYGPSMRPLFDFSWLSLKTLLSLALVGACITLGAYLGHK

| SMILES | Ki [1] [nM] | Bcl-XL binding affinity Ki [2] | IC50 [3] [nM] | IC50 [4, 5] [nM] | IC50 [4, 6] [nM] | IC50 ([4]; without camptothecin, read-out: Panc1 − Cpt IC50) [nM] |
| --- | --- | --- | --- | --- | --- | --- |
| CC(O)C1C(CO)ON(Cc2cccc(CN(CCN(C)C)Cc3cccnc3)c2)C1C(=O)NC1CC2CC(C1C)C2(C)C (stereo not shown) [Compound 393] | < 800 | ♯ | > 5000 | > 2500 | > 2500 | – |
| CC(O)C1C(CO)ON(Cc2cccc(CN(CCN(C)C)Cc3ccccc3I)c2)C1C(=O)NC1CC2CC(C1C)C2(C)C (stereo not shown) [Compound 394] | < 800 | ♯ | < 2000 | > 2500 | > 2500 | – |
| CC(O)C1C(CO)ON(Cc2cccc(CN(CCN(C)C)Cc3nccs3)c2)C1C(=O)NC1CC2CC(C1C)C2(C)C (stereo not shown) [Compound 395] | < 800 | ♯ | > 5000 | > 2500 | > 2500 | – |
| CC(O)C1C(CO)ON(Cc2cccc(CN(CCN(C)C)Cc3ccc([N+](=O)[O-])cc3)c2)C1C(=O)NC1CC2CC(C1C)C2(C)C (stereo not shown) [Compound 396] | < 800 | ♯ | > 5000 | > 2500 | > 2500 | – |
| Cc1cccc(CN(CCN(C)C)Cc2cccc(CN3OC(CO)C(C(C)O)C3C(=O)NC3CC4CC(C3C)C4(C)C)c2)c1 (stereo not shown) [Compound 399] | < 800 | ♯ | 2000 to 5000 | > 2500 | > 2500 | – |
| CC(O)C1C(CO)ON(Cc2cccc(CN(CCN(C)C)Cc3cccc(-c4ccccc4)c3)c2)C1C(=O)NC1CC2CC(C1C)C2(C)C (stereo not shown) [Compound 402] | < 800 | ♯ | < 2000 | > 2500 | > 2500 | – |
| CC(O)C1C(CO)ON(Cc2cccc(CN(CCN(C)C)Cc3c(F)cccc3C(F)(F)F)c2)C1C(=O)NC1CC2CC(C1C)C2(C)C (stereo not shown) [Compound 412] | < 800 | ♯ | < 2000 | > 2500 | 1300 to 1800 | – |
| CC(O)C1C(CO)ON(Cc2cccc(CN(CCN(C)C)Cc3ccccn3)c2)C1C(=O)NC1CC2CC(C1C)C2(C)C (stereo not shown) [Compound 413] | < 800 | ♯ | > 5000 | > 2500 | > 2500 | – |
| CC(O)C1C(CO)ON(Cc2cccc(CN(Cc3ccccc3)C(CN(C)C)CC(C)(C)C)c2)C1C(=O)NC1CC2CC(C1C)C2(C)C (stereo not shown) [Compound 414] | < 800 | ♯ | 2000 to 5000 | > 2500 | 1800 to 2500 | – |
| CC(C)C(CN(C)C)N(Cc1ccccc1)Cc1cccc(CN2OC(CO)C(C(C)O)C2C(=O)NC2CC3CC(C2C)C3(C)C)c1 (stereo not shown) [Compound 415] | < 800 | ♯ | 2000 to 5000 | > 2500 | > 2500 | – |
| CC(O)C1C(CO)ON(Cc2cccc(CN(Cc3ccccc3)C(CN(C)C)c3ccccc3)c2)C1C(=O)NC1CC2CC(C1C)C2(C)C (stereo not shown) [Compound 418] | < 800 | ♯ | 2000 to 5000 | 1800 to 2500 | 1800 to 2500 | – |
| CCN1CCC[C@H]1CN(Cc1ccccc1)Cc1cccc(CN2O[C@@H](CO)C([C@H](C)O)[C@H]2C(=O)N[C@H]2C[C@H]3C[C@@H]([C@@H]2C)C3(C)C)c1 (stereo partly shown) [Compound 424] | < 800 | ♯ | < 2000 | > 2500 | 1800 to 2500 | – |
| CC(O)C1C(CO)ON(Cc2cccc(CN(CCN3CCCC3)CC3CCCCC3)c2)C1C(=O)NC1CC2CC(C1C)C2(C)C (stereo not shown) [Compound 425] | < 800 | ♯ | < 2000 | > 2500 | > 2500 | – |
| CCN(CC)CCN(Cc1ccccc1)Cc1cccc(CN2OC(CO)C(C(C)O)C2C(=O)NC2CC3CC(C2C)C3(C)C)c1 (stereo not shown) [Compound 428] | < 800 | ♯ | > 5000 | > 2500 | > 2500 | – |
| CC(O)C1C(CO)ON(Cc2cccc(CN(Cc3ccccc3)C(C)CN(C)C)c2)C1C(=O)NC1CC2CC(C1C)C2(C)C (stereo not shown) [Compound 431] | < 800 | ♯ | > 5000 | > 2500 | > 2500 | – |
| CC(C)CC(CN(C)C)N(Cc1ccccc1)Cc1cccc(CN2OC(CO)C(C(C)O)C2C(=O)NC2CC3CC(C2C)C3(C)C)c1 (stereo not shown) [Compound 435] | < 800 | ♯ | 2000 to 5000 | – | > 2500 | > 2500 |
| CC(O)C1C(CO)ON(Cc2cccc(CN(C)C(CC3CCCCC3)CN(C)C)c2)C1C(=O)NC1CC2CC(C1C)C2(C)C (stereo not shown) [Compound 442] | < 800 | ♯ | 2000 to 5000 | > 2500 | > 2500 | – |
| CC(O)C1C(CO)ON(Cc2cccc(CNC(CC3CCCCC3)CN(C)C)c2)C1C(=O)NC1CC2CC(C1C)C2(C)C (stereo not shown) [Compound 444] | < 800 | ♯ | 2000 to 5000 | > 2500 | > 2500 | – |
| CC(O)C1C(CO)ON(Cc2cccc(CN3Cc4ccccc4C3CN(C)C)c2)C1C(=O)NC1CC2CC(C1C)C2(C)C (stereo not shown) [Compound 470] | < 800 | ♯ | > 5000 | > 2500 | > 2500 | – |
| CC(O)C1C(CO)ON(Cc2cccc(CN(CC(=O)N(C)C)Cc3ccccc3)c2)C1C(=O)NC1CC2CC(C1C)C2(C)C (stereo not shown) [Compound 471] | < 800 | ♯ | > 5000 | > 2500 | > 2500 | – |
| CC(O)C1C(CO)ON(Cc2cccc(CNC(CC3CCCCCC3)CN(C)C)c2)C1C(=O)NC1CC2CC(C1C)C2(C)C (stereo not shown) [Compound 472] | < 800 | ♯ | 2000 to 5000 | > 2500 | > 2500 | – |
| COc1c(CN2O[C@@H](CO)[C@@H]([C@H](C)O)[C@H]2C(=O)N[C@H]2C[C@H]3C[C@@H]([C@@H]2C)C3(C)C)cccc1-c1cccc(C(=O)N[C@H](CN(C)C)C2CCCCC2)c1 [Compound 480] | < 800 | ♯ | 2000 to 5000 | > 2500 | 1300 to 1800 | – |
| COc1c(CN2O[C@@H](CO)[C@@H]([C@H](C)O)[C@H]2C(=O)N[C@H]2C[C@H]3C[C@@H]([C@@H]2C)C3(C)C)cccc1-c1cccc(C(=O)N[C@H](CC(C)C)CN2CCCCCC2)c1 [Compound 483] | < 800 | ♯ | 2000 to 5000 | > 2500 | 1800 to 2500 | – |
| COc1c(CN2O[C@@H](CO)[C@@H]([C@H](C)O)[C@H]2C(=O)N[C@H]2C[C@H]3C[C@@H]([C@@H]2C)C3(C)C)cccc1-c1cccc(C(=O)N[C@@H](CN(C)C)C(C)C)c1 [Compound 484] | < 800 | ♯ | 2000 to 5000 | > 2500 | > 2500 | – |
| COc1c(CN2O[C@@H](CO)[C@@H]([C@H](C)O)[C@H]2C(=O)N[C@H]2C[C@H]3C[C@@H]([C@@H]2C)C3(C)C)cccc1-c1cccc(C(=O)N[C@H](Cc2ccccc2)CN(C)C)c1 [Compound 486] | < 800 | ♯ | 2000 to 5000 | > 2500 | > 2500 | – |
| COc1c(CN2O[C@@H](CO)[C@@H]([C@H](C)O)[C@H]2C(=O)N[C@H]2C[C@H]3C[C@@H]([C@@H]2C)C3(C)C)cccc1-c1cccc(C(=O)N[C@@H](CC2CCCCC2)CN(C)C)c1 [Compound 487] | < 800 | ♯ | 2000 to 5000 | > 2500 | > 2500 | – |
| COc1c(CN2O[C@@H](CO)[C@@H]([C@H](C)O)[C@H]2C(=O)N[C@H]2C[C@H]3C[C@@H]([C@@H]2C)C3(C)C)cccc1-c1cccc(C(=O)N[C@H](CN(C)C)C(C)C)c1 [Compound 488] | < 800 | ♯ | 2000 to 5000 | > 2500 | > 2500 | – |
| CC(O)C1C(CO)ON(Cc2cccc(C(=O)NC(CCc3ccccc3)CN(C)C)c2)C1C(=O)NC1CC2CC(C1C)C2(C)C (stereo not shown) [Compound 498] | < 800 | ♯ | > 5000 | > 2500 | > 2500 | – |
| CC(C)CC(CN(C)C)NC(=O)c1cccc(CN2OC(CO)C(C(C)O)C2C(=O)NC2CC3CC(C2C)C3(C)C)c1 (stereo not shown) [Compound 505] | < 800 | ♯ | > 5000 | > 2500 | > 2500 | – |
